From patent publication US9902736B2, “1-oxo/acylation-14-acylated oridonin derivative, preparation method therefor and application thereof” (HANGZHOU BENSHENG PHARMACEUTICAL CO., LTD., priority 2012, dated 2018)
In brackets after ≈: the same amount, converted by molar mass.

Tests used:
[1] = system: K562/ADR; assay: Leukemia cell growth inhibition, MTT, 72 h; assay type: cell-based; conditions: Homo sapiens
Text: (§1) Leukemia cell lines: leukemia cell lines: K562/adr (drug-resistant, chronic myeloid leukemia, CML), NB4 (acute promyelocytic leukemia, AML), Kasumi-1 (acute myeloid leukemia M2 type, AML-M2), Jurkat (acute lymphoblastic leukemia, ALL), all of which were donated by Cancer Research Institute of Zhejiang University, China; and H9 (acute lymphoblastic leukemia, ALL), which was purchased from China Center for Type Culture Collection.
(§2) 6000 well-growing leukemia cells were obtained and inoculated into wells of a 96-well cell culture plate. […] On the next day, the 1-oxo/acylated-14-acylated oridonin derivatives of different concentrations were added and mixed uniformly. The plate was placed in a carbon dioxide cell incubator (5% CO2) at 37° C. and was incubated for 72 hours. Then the viable cell concentration was determined by MTT method.

[2] = system: Kasumi-1; assay: Leukemia cell growth inhibition, MTT, 72 h; assay type: cell-based; conditions: Homo sapiens
Text: as §1, §2

[3] = system: H9; assay: Leukemia cell growth inhibition, MTT, 72 h; assay type: cell-based, human; conditions: Homo sapiens, H9; 72 h, MTT
Text: as §1, §2

[4] = system: Jurkat; assay: Leukemia cell growth inhibition, MTT, 72 h; assay type: cell-based, human; conditions: Homo sapiens, Jurkat; 72 h, MTT
Text: as §1, §2

[5] = system: NB4; assay: Leukemia cell growth inhibition, MTT, 72 h; assay type: cell-based, human; conditions: Homo sapiens, NB-4; 72 h, MTT
Text: as §1, §2

[6] = system: RPMI 8226; assay: Multiple myeloma cell growth inhibition, MTT, 72 h; assay type: cell-based; conditions: Homo sapiens
Protocol: Multiple myeloma cell lines: RPMI8226 (multiple myeloma), purchased from Fuxiang Bio-tech Co. Ltd., Shanghai, China.
as §2, with “well-growing” for “well-growing leukemia”, “and” for “and was”

[7] = system: CNE; assay: Solid tumor cell growth inhibition, MTT, 72 h; assay type: cell-based, human; conditions: Homo sapiens, CNE; 72 h, MTT
Protocol: (§3) 6000 well-growing human solid tumor cells were obtained and inoculated into wells of a 96-well cell culture plate. The culture medium was DMEM High Glucose cell culture medium containing 10% fetal bovine serum. The plate was placed in a carbon dioxide cell incubator (5% CO2) at 37° C. and incubated for 24 hours. After added with 1-oxo/acylated-14-acylated oridonin derivatives of different concentration and mixed uniformly, the plate was placed in a carbon dioxide cell incubator (5% CO2) at 37° C. and incubated for 72 hours. Then the viable cell concentration was determined by MTT method.

[8] = system: Hela; assay: Solid tumor cell growth inhibition, MTT, 72 h; assay type: cell-based, human; conditions: Homo sapiens, HeLa; 72 h, MTT
Protocol: as §3

[9] = system: Hep-2; assay: Solid tumor cell growth inhibition, MTT, 72 h; assay type: cell-based, human; conditions: Homo sapiens, HEp-2; 72 h, MTT
Protocol: as §3

[10] = system: MGC-803; assay: Solid tumor cell growth inhibition, MTT, 72 h; assay type: cell-based, human; conditions: Homo sapiens, MGC-803; 72 h, MTT
Protocol: as §3

[11] = system: A549; assay: Solid tumor cell growth inhibition, MTT, 72 h; assay type: cell-based; conditions: Homo sapiens
Protocol: as §3

[12] = system: Becap-37; assay: Solid tumor cell growth inhibition, MTT, 72 h; assay type: cell-based; conditions: Homo sapiens
Protocol: as §3

[13] = system: CaEs-17; assay: Solid tumor cell growth inhibition, MTT, 72 h; assay type: cell-based; conditions: Homo sapiens, CaEs17
Protocol: as §3

[14] = system: Hep G2; assay: Solid tumor cell growth inhibition, MTT, 72 h; assay type: cell-based; conditions: Homo sapiens, HepG2
Protocol: as §3

[15] = system: MG-63; assay: Solid tumor cell growth inhibition, MTT, 72 h; assay type: cell-based; conditions: Homo sapiens
Protocol: as §3

[16] = system: PANC-1; assay: Solid tumor cell growth inhibition, MTT, 72 h; assay type: cell-based; conditions: Homo sapiens
Protocol: as §3

[17] = system: PC-3; assay: Solid tumor cell growth inhibition, MTT, 72 h; assay type: cell-based; conditions: Homo sapiens
Protocol: as §3

[18] = system: RKO; assay: Solid tumor cell growth inhibition, MTT, 72 h; assay type: cell-based; conditions: Homo sapiens
Protocol: as §3

[19] = system: SK-OV-3; assay: Solid tumor cell growth inhibition, MTT, 72 h; assay type: cell-based; conditions: Homo sapiens, SK-OV-3, 72 h, MTT; for IC50: read-out: IC50 SK-OV-3; for IC90: read-out: IC90 SK-OV-3
Protocol: as §3

[20] = system: U87-MG; assay: Solid tumor cell growth inhibition, MTT, 72 h; assay type: cell-based; conditions: Homo sapiens, U-87 MG
Protocol: as §3

Compound | IC50 [1] | IC90 [1] | IC50 [2] | IC90 [2] | IC50 [3] | IC90 [3] | IC50 [4] | IC90 [4] | IC50 [5] | IC90 [5] | IC50 [6] | IC90 [6] | IC50 [7] | IC90 [7] | IC50 [8] | IC90 [8] | IC50 [9] | IC90 [9] | IC50 [10] | IC90 [10] | also measured
C=C1C(=O)[C@]23[C@H](OC(=O)C4CCN(S(=O)(=O)CC)CC4)[C@H]1CC[C@H]2[C@@]12CO[C@@]3(O)[C@@H](O)[C@@H]1C(C)(C)CCC2=O [BS-OR-038] | 1.43 µg/mL (≈ 2.53 µM) | 3.92 µg/mL (≈ 6.93 µM) | 1.1 µg/mL (≈ 1.94 µM) | 3.95 µg/mL (≈ 6.98 µM) | 1.42 µg/mL (≈ 2.51 µM) | 3.01 µg/mL (≈ 5.32 µM) | 1.36 µg/mL (≈ 2.4 µM) | 5.91 µg/mL (≈ 10.4 µM) | 0.44 µg/mL (≈ 0.778 µM) | 2.63 µg/mL (≈ 4.65 µM) | 0.97 µg/mL (≈ 1.71 µM) | 3.58 µg/mL (≈ 6.33 µM) | 3.29 µg/mL (≈ 5.82 µM) | 10.9 µg/mL (≈ 19.2 µM) | 3.01 µg/mL (≈ 5.32 µM) | 6.16 µg/mL (≈ 10.9 µM) | 4.34 µg/mL (≈ 7.67 µM) | 13.9 µg/mL (≈ 24.6 µM) | 3.36 µg/mL (≈ 5.94 µM) | 9.55 µg/mL (≈ 16.9 µM) | IC50 [11]: 6.1 µg/mL (≈ 10.8 µM); IC90 [11]: 10.2 µg/mL (≈ 18 µM); IC50 [12]: 3.04 µg/mL (≈ 5.37 µM); IC90 [12]: 7.59 µg/mL (≈ 13.4 µM); IC50 [13]: 2.18 µg/mL (≈ 3.85 µM); IC90 [13]: 7.64 µg/mL (≈ 13.5 µM); IC50 [14]: 3.37 µg/mL (≈ 5.96 µM); IC90 [14]: 13.2 µg/mL (≈ 23.3 µM); IC50 [15]: 0.95 µg/mL (≈ 1.68 µM); IC90 [15]: 4.89 µg/mL (≈ 8.64 µM); IC50 [16]: 4.7 µg/mL (≈ 8.31 µM); IC90 [16]: 11.4 µg/mL (≈ 20.1 µM); IC50 [17]: 5.3 µg/mL (≈ 9.37 µM); IC90 [17]: 11.6 µg/mL (≈ 20.5 µM); IC50 [18]: 1.01 µg/mL (≈ 1.79 µM); IC90 [18]: 1.93 µg/mL (≈ 3.41 µM); IC50 [19]: 5.3 µg/mL (≈ 9.37 µM); IC90 [19]: 11.6 µg/mL (≈ 20.5 µM); IC50 [20]: 1.98 µg/mL (≈ 3.5 µM); IC90 [20]: 6.78 µg/mL (≈ 12 µM)
C=C1C(=O)[C@]23[C@H](OC(=O)c4ccncc4)[C@H]1CC[C@H]2[C@@]12CO[C@@]3(O)[C@@H](O)[C@@H]1C(C)(C)CCC2=O [BS-OR-012] | 0.75 µg/mL (≈ 1.6 µM) | 3.2 µg/mL (≈ 6.84 µM) | 1.15 µg/mL (≈ 2.46 µM) | 2.39 µg/mL (≈ 5.11 µM) | 0.75 µg/mL (≈ 1.6 µM) | 1.99 µg/mL (≈ 4.26 µM) | 0.99 µg/mL (≈ 2.12 µM) | 5.77 µg/mL (≈ 12.3 µM) | 0.32 µg/mL (≈ 0.684 µM) | 1.3 µg/mL (≈ 2.78 µM) | 0.92 µg/mL (≈ 1.97 µM) | 3.48 µg/mL (≈ 7.44 µM) | 2.47 µg/mL (≈ 5.28 µM) | 9.36 µg/mL (≈ 20 µM) | 2.42 µg/mL (≈ 5.18 µM) | 6.3 µg/mL (≈ 13.5 µM) | 3.61 µg/mL (≈ 7.72 µM) | 14.7 µg/mL (≈ 31.5 µM) | 1.79 µg/mL (≈ 3.83 µM) | 3.99 µg/mL (≈ 8.53 µM) | IC50 [11]: 5.55 µg/mL (≈ 11.9 µM); IC90 [11]: 10.7 µg/mL (≈ 22.9 µM); IC50 [12]: 2.39 µg/mL (≈ 5.11 µM); IC90 [12]: 6.29 µg/mL (≈ 13.5 µM); IC50 [13]: 2.01 µg/mL (≈ 4.3 µM); IC90 [13]: 10 µg/mL (≈ 21.5 µM); IC50 [14]: 3.01 µg/mL (≈ 6.44 µM); IC90 [14]: 16 µg/mL (≈ 34.2 µM); IC50 [15]: 0.99 µg/mL (≈ 2.12 µM); IC90 [15]: 3.84 µg/mL (≈ 8.21 µM); IC50 [16]: 4.11 µg/mL (≈ 8.79 µM); IC90 [16]: 10.2 µg/mL (≈ 21.8 µM); IC50 [17]: 3.48 µg/mL (≈ 7.44 µM); IC90 [17]: 7.54 µg/mL (≈ 16.1 µM); IC50 [18]: 1.01 µg/mL (≈ 2.16 µM); IC90 [18]: 1.98 µg/mL (≈ 4.24 µM); IC50 [19]: 3.48 µg/mL (≈ 7.44 µM); IC90 [19]: 7.54 µg/mL (≈ 16.1 µM); IC50 [20]: 1.88 µg/mL (≈ 4.02 µM); IC90 [20]: 6.17 µg/mL (≈ 13.2 µM)
C=C1C(=O)[C@]23[C@H](OC(=O)c4ccccc4Cl)[C@H]1CC[C@H]2[C@@]12CO[C@@]3(O)[C@@H](O)[C@@H]1C(C)(C)CCC2=O [BS-OR-003] | 0.71 µg/mL (≈ 1.42 µM) | 2.07 µg/mL (≈ 4.13 µM) | 0.72 µg/mL (≈ 1.44 µM) | 2.25 µg/mL (≈ 4.49 µM) | 0.83 µg/mL (≈ 1.66 µM) | 1.82 µg/mL (≈ 3.63 µM) | 0.81 µg/mL (≈ 1.62 µM) | 2.72 µg/mL (≈ 5.43 µM) | 0.22 µg/mL (≈ 0.439 µM) | 0.81 µg/mL (≈ 1.62 µM) | 0.46 µg/mL (≈ 0.918 µM) | 1.79 µg/mL (≈ 3.57 µM) | 1.93 µg/mL (≈ 3.85 µM) | 6.62 µg/mL (≈ 13.2 µM) | 1.84 µg/mL (≈ 3.67 µM) | 5.31 µg/mL (≈ 10.6 µM) | 1.85 µg/mL (≈ 3.69 µM) | 7.56 µg/mL (≈ 15.1 µM) | 1.43 µg/mL (≈ 2.85 µM) | 10.7 µg/mL (≈ 21.4 µM) | IC50 [11]: 2.82 µg/mL (≈ 5.63 µM); IC90 [11]: 5.64 µg/mL (≈ 11.3 µM); IC50 [12]: 1.12 µg/mL (≈ 2.24 µM); IC90 [12]: 3.09 µg/mL (≈ 6.17 µM); IC50 [13]: 1.49 µg/mL (≈ 2.97 µM); IC90 [13]: 5.23 µg/mL (≈ 10.4 µM); IC50 [14]: 1.69 µg/mL (≈ 3.37 µM); IC90 [14]: 7.48 µg/mL (≈ 14.9 µM); IC50 [15]: 0.48 µg/mL (≈ 0.958 µM); IC90 [15]: 2.74 µg/mL (≈ 5.47 µM); IC50 [16]: 2.34 µg/mL (≈ 4.67 µM); IC90 [16]: 8.51 µg/mL (≈ 17 µM); IC50 [17]: 1.82 µg/mL (≈ 3.63 µM); IC90 [17]: 3.82 µg/mL (≈ 7.63 µM); IC50 [18]: 0.66 µg/mL (≈ 1.32 µM); IC90 [18]: 1.49 µg/mL (≈ 2.97 µM); IC50 [19]: 1.82 µg/mL (≈ 3.63 µM); IC90 [19]: 3.82 µg/mL (≈ 7.63 µM); IC50 [20]: 0.99 µg/mL (≈ 1.98 µM); IC90 [20]: 2.82 µg/mL (≈ 5.63 µM)
